# Experimental data: patent publication US20080019949A1, “DIFFERENTIATION OF STEM CELLS FROM UMBILICAL CORD MATRIX INTO […] CELLS” (UNIVERSITY OF KANSAS, priority 2006, published 2008)
# Legend:
# [1] = tested on: differentiated and undifferentiated HUMCs; experiment: Cellular uptake of Indocyanine Green (ICG); type: cell-based, human; conditions: 1 mg/mL ICG concentration
# Method: Cellular uptake of Indocyanine Green (ICG.): ICG was dissolved to an initial concentration of 5 mg/mL in solvent. The solution was then diluted to 1 mg/mL in maturation media and added to the culture dish and incubated at 37° C. in a humidified incubator at 5% CO2 for 10-15 minutes. The cells were washed thoroughly with sterile PBS and then visualized under a light microscope. After examination, the PBS was then removed and maturation media was added and the cells incubated at 37° C. in a humidified incubator at 5% CO2 for ˜4-6 hours to confirm elimination of ICG.
# [2] = tested on: differentiated HUCM cells (hepatocyte-like cells)
# Method: RNA isolation and Reverse Transcription Polymerase Chain Reaction (RT-PCR.): RNA was isolated from cells on RNeasy Quick spin columns (Qiagen, Valencia, Calif.) and converted to cDNA using random hexamers and SuperScript II reverse transcriptase (Invitrogen, Carlsbad, Calif.). PCR was performed using a BioRad I-Cycler. Products were resolved by 2% agarose gel electrophoresis and visualized by ethidium bromide staining. Expression of numerous hepatocyte-specific genes was analyzed, including CK18, cytokeratin 18; HNF3-β, hepatocyte nuclear factor 3β; CK19, cytokeratin 19; AFP, alpha fetoprotein; Alb, albumin; and CYP2B6, cytochrome P450 2 family.
# Cytochromes were induced by treatment with; Rifamicin (RIF), 20 um; Penobarbital (PB), 2 mM; forskolin, 50 uM; 8-Bromo-cAMP, 1 mM (Tocris, Ellisville, Mo.); and vehicle controls for 24-hour period. mRNA was then harvested and then analyzed by RT-PCR.
SMILES,adverse effects on cells [1],CYP3A4 expression (RT-PCR) [2],PXR expression (RT-PCR) [2],"expression of inducible markers (CAR, PXR, PGC-1, PEPCK, PPAR-γ, CYP3A4, HNF4α) [2]"
"CC1(C)C(/C=C/C=C/C=C/C=C2\N(CCCCS(=O)(=O)O)c3ccc4ccccc4c3C2(C)C)=[N+](CCCCS(=O)(=O)[O-])c2ccc3ccccc3c21 [ICG, Indocyanine Green]",no adverse effects were observed,–,–,–
"CCC1(c2ccccc2)C(=O)NC(=O)NC1=O [PB, phenobarbital]",–,induced,induced,showed a number of hepatocyte-inducible genes or an increase in expression levels
C=C[C@@]1(C)CC(=O)[C@]2(O)[C@@]3(C)[C@@H](O)CCC(C)(C)[C@@H]3[C@H](O)[C@H](OC(C)=O)[C@@]2(C)O1 [forskolin],–,–,–,showed a number of hepatocyte-inducible genes or an increase in expression levels
